For assay [1], the system named is SARS-COV-2. The following applies: VeroE6 cells, RNA replication by qPCR; Hattori et al. 2021; read-out: EC50, blocking of SARS-COV-2 infection; cited from earlier work. In general terms: Real-time PCR tracks product formation cycle by cycle.
Assay [2] relates to SARS-COV-2. In words: microbe, parasite or virus in culture. It is filed as cell-based. To be noted: Vero cells; for reduction in infectivity titres compared with the control: 10 μM; for reduction in the infectivity titres compared with the control: 4 h pre-incubation, MOI 0.04, 48 h; for inhibition at 6 µM / inhibition at 8 µM: Severe acute respiratory syndrome coronavirus 2; for inhibition at 6 µM: read-out: inhibition of viral replication; for inhibition at 8 µM: read-out: inhibition percentage.

Assay [3] deals with SARS-COV-2. To be noted: Rut et al., Nat. Chem. Biol. 2021; cited from earlier work.
Assay [4] deals with Mpro (Severe acute respiratory syndrome coronavirus 2, UniProt P0DTD1). To be noted: read-out: IC50 (half-maximal inhibitory concentration), Dai et al., Science 2020; cited from earlier work.
Where [5] appears, read: 6 μM, same experimental conditions.

Like-named read-outs stand apart in the source and are kept apart here.

Usually EC50 stands for the concentration at which the effect is half-maximal. What is called inhibition is the percentage by which the read-out fell short of the control.

Regarding `O=C(Oc1cncc(Cl)c1)c1cccc2c1CCN2` [GRL-1720], the EC50 in assay [1] is 15 ± 4 µM.

As to `C=C(CC)C(=O)c1ccc(OCC(=O)Nc2ccc3[nH]ncc3c2)c(Cl)c1Cl` [P26, 2-(2.3-dichloro-4-(2-methylenebutanoyl)phenoxy)-N-(1H-indazol-5-yl)acetamide], in assay [2] (same experimental conditions), the “reduction in infectivity titres compared with the control” value (shortened to “reduction in infectivity titres”) stood at 93.09% and the inhibition at 8 µM was approximately 52.1%. For the same compound, the “reduction in the infectivity titres compared with the control” value (“reduction in the infectivity titres” for short) in assay [2] (16.6 μM) is given as 97.96%. For the same compound, the inhibition at 6 µM in assay [2] (setting [5]) was approximately 30%.

As to Ac-Abu-dTyr-Leu-Gln-VS [Ac-QSS-VS (15)], the EC50 in assay [3] was 3.7 µM.

For the compound `O=C[C@H](C[C@@H]1CCNC1=O)NC(=O)[C@H](Cc1cccc(F)c1)NC(=O)c1cc2ccccc2[nH]1` [11b], the IC50 in assay [4] was 40 nM.

Consider `C=C(CC)C(=O)c1ccc(OCC(=O)Nc2ccc3c(cnn3C)c2)c(Cl)c1Cl` [P7, 2-(2,3-dichloro-4-(2-methylenebutanoyl)phenoxy)-N-(1-methyl-1H-indazol-5-yl)acetamide], for which, in assay [2] (setting [5]), the “inhibition of viral replication” value is “did not inhibit virus replication at all”. Further, in assay [2] (same experimental conditions), the “reduction in infectivity titres” value is recorded as 100% and the inhibition at 8 µM is approximately 96.7%. Moreover, in assay [2] (16.6 μM), the “reduction in the infectivity titres” value was found to be 100%.

For `C=C(CC)C(=O)c1ccc(OCC(=O)Nc2cccc3cn(C)nc23)c(Cl)c1Cl` [P30, 2-(2,3-dichloro-4-(2-methylenebutanoyl)phenoxy)-N-(2-methyl-2H-indazol-7-yl)acetamide], the “reduction in the infectivity titres” value in assay [2] (5.54 μM) is on record as 96.75%. Besides, in assay [2] (same experimental conditions), the “reduction in infectivity titres” value stood at 100% and the inhibition at 8 µM was approximately 99.7%. Also, the inhibition at 6 µM in assay [2] (setting [5]) is approximately 30%.

Source of the values: patent US20240287003A1, “ETHACRYNIC ACID DERIVATIVES AS INHIBITORS OF MPRO PROTEASE AND SARS-COV-2 REPLICATION” (UNIVERSITE EUROMEDITERRANEENNE DE FES, priority 2021, published 2024).
